Consider 9 compounds from patent publication EP1224299B1, “RECOMBINANT PROTEINS AND PEPTIDES FOR ENDOTOXIN BIOSENSORS, ENDOTOXIN REMOVAL, AND ANTI-MICROBIAL AND ANTI-ENDOTOXIN THERAPEUTICS” (priority 1999, dated 2001).

pEC50, pKd: −log10 of the molar value. Like-named read-outs stand apart in the source and are kept apart here. Ends that are not written are not given here. Peptide text beside a SMILES is read from it.

One series concerns Human erythrocytes. Description: Hemolysis assay, human erythrocytes. The format is cell-based. As to conditions: for Concentration of peptide to induce 50% haemolysis: red cells of human; for Hemolytic activity: at 100 µg/ml, 0.4% erythrocytes, 1 h. As to the method: Human and rabbit erythrocytes were both used to test the hemolytic activities of the peptides. Whole blood was collected in heparinized sterile syringe, transferred to sterile borosilicate tube and centrifuged at 1200 g for 5 minutes at 4°C. The supernatant including the leukocytes above the erythrocyte pellet was discarded. The erythrocytes were washed 3 times using three volumes of pre-chilled pyrogen-free saline (PFS). An erythrocyte suspension at 0.4% was prepared for the hemolysis assay. Serial two-fold dilutions of the peptides was prepared in PFS and 100 µl aliquots were added to equal volumes of 0.4% erythrocyte solution in a 96-well microtiter plate (Nunclon™ Δ surface, Nunc) to give final peptide concentrations ranging from 6 to 100 µg/ml. The mixtures were incubated at 37°C for 1 h. The intact erythrocytes were then pelleted by centrifuging at 1000 g for 5 min. One hundred µl of the supernatant was transferred to a new 96-well microtiter plate and the amount of hemoglobin released into the supernatant was determined by reading the absorbance at 414nm using a SPECTRAmax™ 340 plate reader with SOFTmax PRO™ version 1.2.0. A positive control with 100 µl of 0.4% erythrocyte lysed in 1% Triton-X 100 was taken as 100% lysis. The negative control was the erythrocytes in PFS alone, which gave minimal lysis. This was taken as 0%.

The nature of series [1]: Limulus Kinetic-QCL assay, inhibition of endotoxin-induced LAL reaction. The format is biochemical, E.coli 055:B5. To be noted: 200 EU/ml LPS, 1 h at 37 °C, 1000-fold dilution; read-out: 50% endotoxin-neutralizing concentration (ENC50). The text has this: The Limulus Kinetic-QCL is a quantitative, kinetic assay for the detection of gram-negative bacterial endotoxin. This assay utilizes the initial part of LAL endotoxin reaction to activate an enzyme, which in turn releases p-nitroaniline from a synthetic substrate, producing a yellow color. The time required before the appearance of a yellow color is inversely proportional to the amount of endotoxin present. Throughout the assay, the absorbance at 405 nm of each well of the microplate was monitored. Using the initial absorbance reading of each well as its own blank, the time required for the absorbance to increase 0.200 absorbance units were calculated as Reaction Time.
Briefly, 25 µl of endotoxin solution (LPS, E.coli 055:B5) at 200 EU/ml was mixed with an equal volume of SSCrFCES at 1 µM, in a series of 2-fold dilutions in LAL reagent water in disposable endotoxin-free glass dilution tubes (BioWhittaker) and incubated at 37°C for one hour. […] The endotoxin activity was then quantified with Limulus Kinetic-QCL. […] The plate was then pre-incubated for > 10 minutes in a temperature-controlled ELISA plate reader. […] The absorbance at 405 nm of each well of the microtitre plate was monitored at time intervals of 5 minutes over a period of 2 hours. A 5 second automix was activated prior to reading. […]
The high sensitivity of the assay allowed for very low levels of endotoxin to be detected. […]

A short description of series [2]: Hill's plot for interaction between synthetic peptides and lipid A. In kind it is binding.
Series [3] can be described thus: LPS-induced lethality in galactosamine-sensitized mice. The format is in vivo, C57BL/6J mice. To be noted: for protection: 25 and 75 µg peptide; for decrease in LPS-induced lethality: 25 or 75 µg, pre-incubated with LPS 30 min prior to i.p. injection. As to the method: The anti-endotoxin potency of SSCrFCES was investigated in C57BL/6J mice. Mice are typically resistant to endotoxin. However, the sensitivity of mice to endotoxin can be enhanced > 1,000-fold by co-injection with a liver-specific inhibitor, galactosamine (31). In our study, intraperitoneal (i.p.) injection of 2.5 ng of E. coli 055:B5 LPS together with 15 mg of galactosamine hydrochloride in 0.2 ml of saline induced nearly 100% lethality in 18-25 g C57BL/6J mice within 7 hours. Various concentrations of SSCrFCES (1, 2, and 4 µM) and synthetic peptides (25 and 75 µg) were injected intravenously (i.v.) through tail vein 10 minutes after i.p. injection of the LPS-galactosamine mixture. Lethality was observed over 3 days after injection. Statistical analysis were performed using the Kaplan-Meier test (32) and log rank pairwise test.

In series [4] the test system is 30 clinical strains of P. aeruginosa. Kind of series: Microbicidal concentration (MBC) assay, 30 clinical strains. The format is cell-based. As to conditions: for MBC50: concentration of peptide required to kill 50% of the strains. As for the experimental part: Test strains cultured on Mueller-Hinton agar (MHA, Becton Dickinson, USA) were inoculated into 10 ml Mueller-Hinton broth (MHB, Becton Dickinson, USA) and grown overnight at 37°C in a shaker incubator (Model 4536, Forma Scientific, Inc., USA) at 230 rpm. Overnight broth cultures were diluted to give a final cell density of 10^5 colony forming units/ml (cfu/ml). One hundred microliters of the bacterial suspension was dispensed into sterile polypropylene 8-strip PCR-tubes (Quality Scientific Plastics, USA). Eleven microliters of serially diluted sushi peptides, ranging in final concentrations of 0.03-4 µg/ml, were then added. The peptides were constituted at 10 times the required test concentrations in 0.01% acetic acid and 0.2% bovine serum albumin (BSA). Positive controls were cultures without test peptides. Uninoculated MHB was used as negative control. All tests were carried out in triplicate.
Cultures were incubated at 37°C for 18-24 h, with the PCR-tubes held in horizontal position and shaken at 230 rpm. Cell counts were determined by standard drop-count method. The killing efficiency for the four sushi peptides were calculated based on standard drop-count method.

A further series has as its system P. aeruginosa ATCC 27853. Description: Killing rate assay. The format is cell-based. As to conditions: 0.06 µg/ml, initial 10^9 cfu/ml; concentration achieving MBC90. The text has this:
The killing rate assay was adapted from the MBC test above, with different contact time of peptides with the bacteria arrested at regular intervals and plated for colony count. An initial density of 10^9 cfu/ml was used. […] This is one of the important features of an effective therapeutic agent.

In the next series the test system is P.aeruginosa. As to conditions: cited from earlier work.
The conditions of series [5]: ligand LPS S. minnesota Re595; read-out: Equilibrium constant; cited from earlier work.

In the case of HAEHKVKIGVEQKYGQFPQGTEVTYTCSGNYFLM [S3], the “Concentration of peptide to induce 50% haemolysis” value in the series on Human erythrocytes stood at 160 µg/mL.
`CC[C@H](C)[C@H](NC(=O)[C@H](CCCNC(=N)N)NC(=O)[C@H](C)NC(=O)[C@H](CCSC)NC(=O)CNC(=O)[C@H](CCCCN)NC(=O)[C@H](CC(C)C)NC(=O)[C@H](CCCCN)NC(=O)[C@H](Cc1ccccc1)NC(=O)CN)C(=O)N[C@@H](CO)C(=O)N[C@@H](CS)C(=O)N[C@@H](CC(C)C)C(=O)N1CCC[C@H]1C(=O)N[C@@H](CC(N)=O)C(=O)NCC(=O)N[C@@H](CCC(N)=O)C(=O)N[C@@H](Cc1c[nH]c2ccccc12)C(=O)N[C@@H](CO)C(=O)N[C@@H](CC(N)=O)C(=O)N[C@@H](Cc1ccccc1)C(=O)N1CCC[C@H]1C(=O)N1CCC[C@H]1C(=O)N[C@@H](CCCCN)C(=O)N[C@@H](CS)C(=O)N[C@H](C(=O)N[C@@H](CCCNC(=N)N)C(=O)N[C@@H](CCC(=O)O)C(=O)N[C@@H](CS)C(=O)N[C@@H](C)C(=O)N[C@@H](CCSC)C(=O)N[C@H](C(=O)N[C@@H](CO)C(=O)N[C@@H](CO)C(=O)O)C(C)C)[C@@H](C)CC` [S1] (H-GFKLKGMARISCLPNGQWSNFPPKCIRECAMVSS-OH; N-terminus and C-terminus assumed): the pEC50 in series [1] was 5.65. For the same compound, in series [2], the “Hill's plot co-operativity n” value stood at 2.42. In series [3], the protection is on record as 22-100% and the “decrease in LPS-induced lethality” value is listed as 20-55%. In series [4], this compound yielded an MBC90 of 0.008 µM and an MBC50 of at most 0.03 µg/mL. The “Killing rate (time to MBC90)” value in the series with P. aeruginosa ATCC 27853 came out at 7 min. The “Concentration of peptide to induce 50% haemolysis” value with Human erythrocytes amounted to 290 µg/mL.
As for “HAEHKVKIKVKQKYGQFPQGTEVTYTCSGNYFLM [S3Δ]”, in the series with Human erythrocytes, the Hemolytic activity turned out to be 35% and the “Concentration of peptide to induce 50% haemolysis” value was determined as 120 µg/mL. In the series on Human erythrocytes (listed as SΔ3), this compound gave a Hemolytic activity of 35% at 100 µg/ml.
Consider Magainin II, for which the MBC50 with P.aeruginosa was 64 µg/mL.
As to “BPI pep85-99 (15 mer): 15 mer peptide of BPI (IKISGKWKAQKRFLK; UniProt P17213 116-130, looked up, fragment)”, the pKd in series [5] is 5.75.
On to Ranalexin, for which the MBC50 with P.aeruginosa was over 128 µg/mL.
Turning to Nisin, the MBC50 in the series on P.aeruginosa was 128 µg/mL.
`CC[C@H](C)[C@H](NC(=O)[C@H](CCCCN)NC(=O)[C@H](C)NC(=O)[C@H](CCCCN)NC(=O)CNC(=O)[C@H](CCCCN)NC(=O)[C@H](CC(C)C)NC(=O)[C@H](CCCCN)NC(=O)[C@H](Cc1ccccc1)NC(=O)CN)C(=O)N[C@@H](CO)C(=O)N[C@@H](CS)C(=O)N[C@@H](CC(C)C)C(=O)N1CCC[C@H]1C(=O)N[C@@H](CC(N)=O)C(=O)NCC(=O)N[C@@H](CCC(N)=O)C(=O)N[C@@H](Cc1c[nH]c2ccccc12)C(=O)N[C@@H](CO)C(=O)N[C@@H](CC(N)=O)C(=O)N[C@@H](Cc1ccccc1)C(=O)N1CCC[C@H]1C(=O)N1CCC[C@H]1C(=O)N[C@@H](CCCCN)C(=O)N[C@@H](CS)C(=O)N[C@H](C(=O)N[C@@H](CCCNC(=N)N)C(=O)N[C@@H](CCC(=O)O)C(=O)N[C@@H](CS)C(=O)N[C@@H](C)C(=O)N[C@@H](CCSC)C(=O)N[C@H](C(=O)N[C@@H](CO)C(=O)N[C@@H](CO)C(=O)O)C(C)C)[C@@H](C)CC` [S1Δ] (H-GFKLKGKAKISCLPNGQWSNFPPKCIRECAMVSS-OH; N-terminus and C-terminus assumed): the pEC50 in series [1] was 6.06. Further, in series [3], the protection is 22-100% and the “decrease in LPS-induced lethality” value is reported as 20-55%. In series [4], this compound gave an MBC90 of 0.016 µM and an MBC50 of at most 0.03 µg/mL. The compound also displayed an MBC90 in series [4] (concentration of peptide required to kill 90% of the strains) of 0.06 µg/mL. For the same compound, in the series with P. aeruginosa ATCC 27853, the “Killing rate (time to MBC90)” value is given as 7 min. Moreover, in the series with Human erythrocytes, the “Concentration of peptide to induce 50% haemolysis” value was found to be 295 µg/mL.
In the case of “Indolicin: cationic peptide (ILPWKWPWWPWRR; ends and bridges not checked; UniProt P33046 131-143, looked up)”, in the series with P.aeruginosa, the MBC50 is 64 µg/mL and the MBC90 was over 128 µg/mL.
